ChEMBL document CHEMBL4725370, “Discovery of Proteolysis-Targeting Chimera Molecules that Selectively Degrade the IRAK3 Pseudokinase” (J Med Chem, 2020)
Active and inactive are the calls of the source. The calls are words filed in the database; no cut-off is given here.

Assays:
[1] = target: T1, Serine/threonine-protein kinase haspin (Homo sapiens, UniProt Q8TF76); assay: Inhibition of GSG2 (unknown origin)
T1 sequence (Q8TF76 whole entry): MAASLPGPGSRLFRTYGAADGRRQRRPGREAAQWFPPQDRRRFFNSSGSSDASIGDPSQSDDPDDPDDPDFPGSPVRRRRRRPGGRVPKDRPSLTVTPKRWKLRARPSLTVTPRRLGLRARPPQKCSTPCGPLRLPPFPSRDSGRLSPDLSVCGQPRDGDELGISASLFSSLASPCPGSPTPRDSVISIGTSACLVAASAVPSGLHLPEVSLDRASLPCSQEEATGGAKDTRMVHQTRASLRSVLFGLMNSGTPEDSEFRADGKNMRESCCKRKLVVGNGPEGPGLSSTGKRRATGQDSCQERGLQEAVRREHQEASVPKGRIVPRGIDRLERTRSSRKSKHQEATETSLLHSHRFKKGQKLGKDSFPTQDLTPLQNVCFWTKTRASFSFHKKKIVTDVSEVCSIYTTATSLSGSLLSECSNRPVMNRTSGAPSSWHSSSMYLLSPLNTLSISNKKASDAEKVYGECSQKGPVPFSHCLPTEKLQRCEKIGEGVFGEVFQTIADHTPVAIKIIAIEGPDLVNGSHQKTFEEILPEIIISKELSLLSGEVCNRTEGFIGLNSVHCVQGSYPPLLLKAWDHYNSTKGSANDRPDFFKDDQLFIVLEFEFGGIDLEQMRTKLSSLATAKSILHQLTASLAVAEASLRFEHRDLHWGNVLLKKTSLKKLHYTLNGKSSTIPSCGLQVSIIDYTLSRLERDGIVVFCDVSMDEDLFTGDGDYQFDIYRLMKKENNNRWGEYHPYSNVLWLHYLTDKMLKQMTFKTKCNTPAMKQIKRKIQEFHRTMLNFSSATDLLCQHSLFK

[2] = target: T2, Protein cereblon/Interleukin-1 receptor-associated kinase 3 (Homo sapiens, UniProt Q9Y616+Q96SW2); assay: Protac activity at CRBN/IRAK3 in LPS-induced human THP1 cells assessed as induction of IRAK3 degradation after 16 hrs by Western blot analysis; type: cell-based; details: thp-1
Target sequence in this assay (Q9Y616 whole entry): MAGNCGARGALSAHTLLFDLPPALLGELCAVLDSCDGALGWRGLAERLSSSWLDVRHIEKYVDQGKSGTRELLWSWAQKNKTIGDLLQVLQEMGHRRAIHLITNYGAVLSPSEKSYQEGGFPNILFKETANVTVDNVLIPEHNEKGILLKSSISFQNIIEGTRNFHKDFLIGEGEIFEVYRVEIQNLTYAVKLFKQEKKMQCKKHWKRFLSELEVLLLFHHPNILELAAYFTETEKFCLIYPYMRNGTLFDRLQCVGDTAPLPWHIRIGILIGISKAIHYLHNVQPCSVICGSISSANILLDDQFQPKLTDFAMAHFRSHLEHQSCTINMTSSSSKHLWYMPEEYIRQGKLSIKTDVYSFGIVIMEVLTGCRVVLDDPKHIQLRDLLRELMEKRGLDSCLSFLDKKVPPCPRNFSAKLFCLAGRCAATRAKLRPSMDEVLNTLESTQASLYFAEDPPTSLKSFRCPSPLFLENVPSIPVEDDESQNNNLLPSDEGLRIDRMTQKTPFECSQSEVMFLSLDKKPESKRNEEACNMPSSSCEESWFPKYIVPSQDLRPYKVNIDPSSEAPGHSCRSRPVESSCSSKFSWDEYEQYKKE
Target sequence in this assay (Q96SW2 whole entry): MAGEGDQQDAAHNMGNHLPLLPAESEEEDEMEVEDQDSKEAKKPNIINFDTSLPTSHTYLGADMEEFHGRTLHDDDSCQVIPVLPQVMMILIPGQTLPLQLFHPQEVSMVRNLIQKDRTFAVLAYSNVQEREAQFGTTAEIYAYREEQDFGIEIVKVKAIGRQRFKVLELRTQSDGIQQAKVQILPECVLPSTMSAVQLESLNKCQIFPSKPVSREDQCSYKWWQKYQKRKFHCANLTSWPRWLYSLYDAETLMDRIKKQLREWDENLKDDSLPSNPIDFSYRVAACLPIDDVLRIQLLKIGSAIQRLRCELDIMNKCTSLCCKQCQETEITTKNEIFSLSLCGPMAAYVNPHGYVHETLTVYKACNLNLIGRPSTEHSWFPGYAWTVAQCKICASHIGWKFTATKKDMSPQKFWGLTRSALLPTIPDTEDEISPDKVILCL

[3] = target: Interleukin-1 receptor-associated kinase 1 (Homo sapiens, UniProt P51617); assay: Displacement of polymer supported probe 25 binding to IRAK1 in human THP-1 cell lysates preincubated for 45 mins under shaking condition followed by probe addition and measured after 30 mins by mass spectrometry based chemoproteomic analysis; type: subcellular; details: read-out: Kd(app)
[4] = target: T1, Serine/threonine-protein kinase haspin; assay: Displacement of polymer supported probe 25 binding to GSG2 in human THP-1 cell lysates preincubated for 45 mins under shaking condition followed by probe addition and measured after 30 mins by mass spectrometry based chemoproteomic analysis; type: subcellular; details: read-out: Kd(app)
[5] = target: T2, Protein cereblon/Interleukin-1 receptor-associated kinase 3; assay: Protac activity at CRBN/IRAK3 in human THP1 cells assessed as induction of IRAK3 degradation at 0.1 uM measured after 24 hrs by Western blot analysis; type: cell-based; details: THP-1
Target sequence in this assay (Q96SW2 whole entry, looked up): as the sequence (Q96SW2 whole entry) above
Target sequence in this assay (Q9Y616 whole entry, looked up): as the sequence (Q9Y616 whole entry) above

[6] = target: T2, Protein cereblon/Interleukin-1 receptor-associated kinase 3; assay: Protac activity at CRBN/IRAK3 in human THP1 cells assessed as induction of IRAK3 degradation at 0.1 uM measured after 6 hrs in presence of proteasome inhibitor MG132 by Western blot analysis; type: cell-based; details: THP-1
Target sequence in this assay (Q96SW2 whole entry, looked up): as the sequence (Q96SW2 whole entry) above
Target sequence in this assay (Q9Y616 whole entry, looked up): as the sequence (Q9Y616 whole entry) above

Interleukin-1 receptor-associated kinase 1, sequence (P51617 whole entry): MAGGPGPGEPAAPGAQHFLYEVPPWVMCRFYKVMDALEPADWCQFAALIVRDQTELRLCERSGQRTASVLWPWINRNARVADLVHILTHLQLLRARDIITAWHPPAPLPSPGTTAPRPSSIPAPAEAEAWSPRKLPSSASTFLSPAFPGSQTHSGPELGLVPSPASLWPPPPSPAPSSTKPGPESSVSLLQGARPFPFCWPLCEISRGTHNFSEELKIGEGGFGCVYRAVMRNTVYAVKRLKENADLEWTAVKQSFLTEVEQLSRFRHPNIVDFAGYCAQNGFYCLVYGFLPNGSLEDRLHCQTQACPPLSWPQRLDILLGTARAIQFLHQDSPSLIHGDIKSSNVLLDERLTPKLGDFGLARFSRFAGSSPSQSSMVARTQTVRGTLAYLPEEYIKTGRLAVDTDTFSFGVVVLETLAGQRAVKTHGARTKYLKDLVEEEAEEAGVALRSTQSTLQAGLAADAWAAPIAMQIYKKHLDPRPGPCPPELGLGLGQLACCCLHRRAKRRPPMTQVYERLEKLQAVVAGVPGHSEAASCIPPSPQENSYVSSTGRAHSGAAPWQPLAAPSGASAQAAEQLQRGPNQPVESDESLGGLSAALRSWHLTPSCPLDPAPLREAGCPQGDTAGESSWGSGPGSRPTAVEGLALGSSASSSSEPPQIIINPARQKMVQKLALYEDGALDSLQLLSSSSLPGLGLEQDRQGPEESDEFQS

With `CC(C)c1ccn2ncnc(N[C@H]3CC[C@@H](N4CCN(C(=O)CCC(=O)N5CCC(CCN6CCN(c7ccc8c(c7)C(=O)N(C7CCC(=O)NC7=O)C8=O)CC6)CC5)CC4)CC3)c12` (stereo partly specified) the IC50 [1] was 110 nM, the DC50 [2] was 2 nM and the Kd [3] was 2800 nM. The Kd [4] was 780 nM, the Activity [5] was “Active” and the Activity [6] was “inactive”.
